In test [1] the target is Botulinum neurotoxin type A (Clostridium botulinum) (UniProt P0DPI0). Briefly: Ratio of Ki for NSC 300510 to compound Ki for clostridium botulinum Botulinum neurotoxin type A light chain by RP-HPLC analysis.
Test [2] deals with Botulinum neurotoxin type A (Clostridium botulinum, UniProt P0DPI0). Briefly: Competitive inhibition of clostridium botulinum Botulinum neurotoxin type A light chain by RP-HPLC analysis.
The target in test [3] is Botulinum neurotoxin type A (Clostridium botulinum) (UniProt P0DPI0). Briefly: Inhibition of clostridium botulinum Botulinum neurotoxin type A light chain at 20 uM by RP-HPLC analysis.

The term Ki denotes the equilibrium dissociation constant of an inhibitor or competing ligand from its target. High values mean lower affinity, low ones higher affinity. The term inhibition denotes the drop in the measured response relative to a control, in per cent. A lower inhibition goes with little suppression.

Sequence of Botulinum neurotoxin type A (Clostridium botulinum) (P0DPI0 2-448 limits assumed): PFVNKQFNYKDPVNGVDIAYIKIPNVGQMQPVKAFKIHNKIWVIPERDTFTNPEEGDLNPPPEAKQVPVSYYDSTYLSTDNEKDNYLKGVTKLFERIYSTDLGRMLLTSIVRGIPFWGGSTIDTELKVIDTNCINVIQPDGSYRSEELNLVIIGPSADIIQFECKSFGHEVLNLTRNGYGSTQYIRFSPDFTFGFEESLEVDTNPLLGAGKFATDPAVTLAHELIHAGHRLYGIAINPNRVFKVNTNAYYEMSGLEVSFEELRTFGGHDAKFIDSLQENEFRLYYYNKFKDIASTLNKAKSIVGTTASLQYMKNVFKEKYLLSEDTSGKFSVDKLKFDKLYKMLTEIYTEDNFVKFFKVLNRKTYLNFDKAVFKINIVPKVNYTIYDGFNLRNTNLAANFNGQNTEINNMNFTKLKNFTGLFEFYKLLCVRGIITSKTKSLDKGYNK
Sequence of Botulinum neurotoxin type A (P0DPI0 2-448 limits assumed): as above

Take `Clc1ccc2c(NCCCNCc3ccc(-c4ccc(-c5ccc(CNCCCNc6ccnc7cc(Cl)ccc67)cc5)s4)cc3)ccnc2c1`: in test [1], the Ratio Ki was 36.
`N=C(N)c1ccc(-c2ccc(-c3ccc(C(=N)N)cc3)s2)cc1` returned a Ki in test [2] of 10900 nM. In test [3], the inhibition worked out at 78%.
For the molecule `Clc1ccc2c(NCCNCc3ccc(-c4ccc(-c5ccc(CNCCNc6ccnc7cc(Cl)ccc67)cc5)s4)cc3)ccnc2c1`, the inhibition constant (Ki) in test [2] stood at 882 nM.
On to `Clc1ccc2c(NCCCCNCc3ccc(-c4ccc(-c5ccc(CNCCCCNc6ccnc7cc(Cl)ccc67)cc5)s4)cc3)ccnc2c1`, for which the affinity in test [2] corresponds to a Ki of 535 nM.
The same measure, in the same setting: the figure for `Clc1ccc2c(NCCCCCNCc3ccc(-c4ccc(-c5ccc(CNCCCCCNc6ccnc7cc(Cl)ccc67)cc5)s4)cc3)ccnc2c1` is 889 nM.
Take `O=C(NCCCNc1ccnc2cc(Cl)ccc12)c1cc(NC(=O)c2ccc(C(=O)Nc3cc(C(=O)NCCCNc4ccnc5cc(Cl)ccc45)cc(C4=NCCN4)c3)cc2)cc(C2=NCCN2)c1`: in test [1], the Ratio Ki came out at 15.

Source of the values: ChEMBL document CHEMBL2034965, “The synthesis of 2,5-bis(4-amidinophenyl)thiophene derivatives providing submicromolar-range inhibition of the botulinum neurotoxin serotype A metalloprotease” (Eur J Med Chem, 2012).
